Measurements from patent publication US20080125432A1 (Devgen NV, priority 2004, published 2008).

Each compound was assayed against T1, hERG potassium channel (Homo sapiens, UniProt Q12809) (assay: Whole cell patch clamp, HEK 293 T-REx HERG cells). Details: at 1 μM.
T1 construct: host or cells: HEK 293 T-REx
Format: cell-based
Source text: For this experiment HEK 293 T-REx HERG cells (#23) were used. This cell line made by IonGate is characterized by the inducible expression of the hERG gene. The T-REx™ System (Invitrogen, Karlsruhe, Germany) is a tetracycline-regulated mammalian expression system that uses regulatory elements from the E. coli Tn10-encoded tetracycline (Tet) resistance operon. In the absence of Tet the expression is repressed. Tetracycline regulation in the T-REx™ System is based on the binding of tetracycline to the Tet repressor and derepression of the promoter controlling expression of the hERG gene. Addition of Tet to the cell culture media results in expression of the hERG potassium channel.
To construct the HEK 293 T-REx HERG cell line, the hERG gene was ligated into the inducible expression vector pcDNA4/TO (→pc4TO-HERG) and transfected into HEK 293 T-REx cells (this cell line stably expresses the Tet repressor and was purchased at Invitrogen). Stable cell clones were isolated after selection with Blasticidin (5 μg/ml) and Zeocin™ (300 μg/ml). The clones were electrophysiological characterized after induction with 1 μg/ml Tet.
Experiments were performed using the patch clamp set-up. Technical equipment needed for manipulation of the cells was placed on a vibration-isolated table and shielded with a Faraday cage to minimize electrical noise. The amplifier and control system were placed in a rack outside the Faraday cage. The system consisted of an EPC9 or EPC10 patch clamp amplifier (HEKA, Lambrecht, Germany), and the perfusion system DADVC8 (ALA Scientific, New York, USA) controlled by the Pulse software package (HEKA, Lambrecht, Germany) installed on a personal computer.
The cells used for this experiment were kept in continuous culture under standard conditions (37° C., air supplemented with 5% CO2). The HEK 293 T-REx HERG cells were kept in minimal essential medium (MEM) supplemented with 100 U/ml Penicillin, 100 μg/ml Streptomycin, 10% fetal calf serum (FCS), 1% non-essential amino acids (NEAA), 2.5 μg/ml amphotericin, 300 μg/ml Zeocin™ and 5 μg/ml Blasticidin. Cells were passed every 3-4 days after detachment using a Trypsin solution. The quality of the cultured cells was guaranteed by vitality and contamination tests. The culture of the cells was performed as described in protocol D described above.
At least 18 hours prior to electrophysiological experiments the cells were detached by application of iced PBS (phosphate buffered saline) or Trypsin and replated on cover slips. 1 μg/ml Tet was added to the cells to induce hERG expression.
Activity of the cardiac hERG channel was investigated using the patch clamp technique in its whole cell mode. This means that the current needed for clamping the whole cell expressing the K^+-channel protein to a specific potential was measured. The pipettes used for patch clamping were made of borosilicate glass. Measurements were performed at room temperature (20-25° C.). In each experiment (i.e. each cell) only one concentration of the compound was investigated no cumulative dosages were performed. Each cell acted as its own control. […]
After the whole cell configuration was established a series of pulses was applied to check for hERG expression and to optimize amplifier settings. However, only the following measurements were used for data analysis: 15 test pulses (FIG. 4a and Table 6a) were applied at 0.1 Hz (series 1) under constant superfusion with bath solution. The protocol was initiated by a leak test at −40 mV (50 ms). […] The maximum hERG tail current amplitude was measured at −40 mV (tail current test, 1.5 sec.). Only cells generating tail current amplitudes between 300 pA and 10 nA were used for the experimental procedure.
After successful characterization of the current another 10 test pulses were applied at 0.1 Hz while the cell was superfused with bath solution (series 2). […]

T1 sequence (Q12809 whole entry): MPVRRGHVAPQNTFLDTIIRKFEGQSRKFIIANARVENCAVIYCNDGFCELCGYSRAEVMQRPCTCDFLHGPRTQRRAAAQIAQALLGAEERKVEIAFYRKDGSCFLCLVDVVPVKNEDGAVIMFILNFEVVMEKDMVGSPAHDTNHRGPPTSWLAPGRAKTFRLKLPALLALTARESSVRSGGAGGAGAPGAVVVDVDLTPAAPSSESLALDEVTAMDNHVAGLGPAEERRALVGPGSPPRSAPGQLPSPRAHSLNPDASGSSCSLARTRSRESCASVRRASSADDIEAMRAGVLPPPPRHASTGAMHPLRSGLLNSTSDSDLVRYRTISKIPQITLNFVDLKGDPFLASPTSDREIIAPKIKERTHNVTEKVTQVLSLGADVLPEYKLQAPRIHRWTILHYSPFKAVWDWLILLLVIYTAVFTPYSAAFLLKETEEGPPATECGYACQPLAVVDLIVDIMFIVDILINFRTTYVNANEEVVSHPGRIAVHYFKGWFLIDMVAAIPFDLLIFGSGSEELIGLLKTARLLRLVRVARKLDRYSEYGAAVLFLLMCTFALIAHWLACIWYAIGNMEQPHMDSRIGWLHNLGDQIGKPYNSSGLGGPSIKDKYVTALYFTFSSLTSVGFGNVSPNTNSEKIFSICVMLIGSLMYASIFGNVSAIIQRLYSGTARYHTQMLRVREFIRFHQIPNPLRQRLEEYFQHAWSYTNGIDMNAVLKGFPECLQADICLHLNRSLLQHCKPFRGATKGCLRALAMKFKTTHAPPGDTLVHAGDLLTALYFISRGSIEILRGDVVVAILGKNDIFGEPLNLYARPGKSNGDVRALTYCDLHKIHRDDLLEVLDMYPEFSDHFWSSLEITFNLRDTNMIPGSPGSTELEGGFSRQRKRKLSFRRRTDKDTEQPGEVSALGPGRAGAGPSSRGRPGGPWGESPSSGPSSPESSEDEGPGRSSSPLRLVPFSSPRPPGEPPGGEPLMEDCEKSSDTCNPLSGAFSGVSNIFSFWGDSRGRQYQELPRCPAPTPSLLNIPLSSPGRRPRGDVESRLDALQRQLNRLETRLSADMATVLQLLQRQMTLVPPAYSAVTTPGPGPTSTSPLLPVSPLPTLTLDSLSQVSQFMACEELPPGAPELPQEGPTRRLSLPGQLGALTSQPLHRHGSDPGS

Row | Compound | hERG [at1 μM]
1 | Cc1nc(Nc2ccc3occc3c2)sc1C(=O)N[C@H]1CCC[C@@H]1OCc1ccccc1 [Compound 126, 2-(benzofuran-5-ylamino)-4-methyl-thiazole-5-carboxylic acid ((1S,2S)-2-benzyloxycyclopent-1-yl) amide] | 74

Same assay, conditions: estimated by Hill fit with hill=1, ymax=100; tested at 10 μM, n=2; read-out: IC50 (μM) hERG

Row | Compound | IC50 [µM]
2 | Cc1nc(Nc2ccc(Cl)cc2)sc1C(=O)N[C@@H]1CCC[C@H]1OCc1ccccc1 [Compound 30, 2-(4-chloro-phenylamino)-4-methyl-thiazole-5-carboxylic acid (1R,2R)-2-(benzyloxycyclopent-1-yl) amide] | 11
3 | COc1ccc(CNC(=O)c2sc(Nc3ccc(Br)cc3)nc2C)cc1 [Compound 60, 2-(4-bromo-phenylamino)-4-methyl-thiazole-5-carboxylic acid 4-methoxy-benzylamide] | 3
4 | COc1cccc([C@@H](C)NC(=O)c2sc(Nc3cc(Cl)ccc3OC)nc2C)c1 [Compound 34] | 8.73
5 | Cc1nc(Nc2ccc(F)cc2)sc1C(=O)N[C@H](C)c1ccc2ccccc2c1 [Compound 16, 2-(4-fluoro-phenylamino)-4-methyl-thiazole-5-carboxylic acid (R)-1-(naphthalen-2-yl)ethyl amide] | 28
6 | Cc1nc(Nc2ccc(Br)cc2)sc1C(=O)NCc1ccc(N(C)C)cc1 [Compound 64, 2-(4-bromo-phenylamino)-4-methyl-thiazole-5-carboxylic acid 4-dimethylamino-benzylamide] | > 100
7 | 2-(4-bromo-phenylamino)-4-methyl-thiazole-5-carboxylic acid 1,2,3,4-tetrahydroisoquinolinamide [Compound 66] | 9.88
8 | COc1ccccc1Nc1nc(C)c(C(=O)N[C@@H](C)c2ccc3ccccc3c2)s1 [Compound 55, 2-(2-methoxy-phenylamino)-4-methyl-thiazole-5-carboxylic acid (S)-1-(2-naphtalen-2-yl-ethyl)-amide] | 10.2
9 | Cc1nc(Nc2ccc(Br)cc2)sc1C(=O)NCc1cccc2ccccc12 [Compound 56, 2-(4-bromo-phenylamino)-4-methyl-thiazole-5-carboxylic acid (naphtalen-1-yl-methyl)-amide] | 7.04
10 | COc1cc(CNC(=O)c2sc(Nc3ccc(Br)cc3)nc2C)cc(OC)c1 [Compound 65, 2-(4-bromo-phenylamino)-4-methyl-thiazole-5-carboxylic acid 3,5-dimethoxy-benzylamide] | 1.63
11 | Cc1nc(Nc2ccc(Br)cc2)sc1C(=O)N[C@H](C)c1ccc2ccccc2c1 [Compound 19, 2-(4-bromo-phenylamino)-4-methyl-thiazole-5-carboxylic acid (R)-1-(naphthalen-2-yl)ethyl amide] | 90
12 | Cc1nc(Nc2ccc(Br)cc2)sc1C(=O)NCc1ccc(F)c(C(F)(F)F)c1 [Compound 63, 2-(4-bromo-phenylamino)-4-methyl-thiazole-5-carboxylic acid 4-fluoro-3-trifluoromethyl-benzylamide] | 5.29
13 | Cc1nc(Nc2ccc(Cl)cc2)sc1C(=O)N[C@@H](C)c1ccc2ccccc2c1 [Compound 54, 2-(4-chloro-phenylamino)-4-methyl-thiazole-5-carboxylic acid (S)-1-(2-naphtalen-2-yl-ethyl)-amide] | 15.8
14 | Cc1nc(Nc2ccc(Cl)cc2)sc1C(=O)N[C@H](C)c1ccc2ccccc2c1 [Compound 52, 2-(4-chloro-phenylamino)-4-methyl-thiazole-5-carboxylic acid (R)-1-(2-naphtalen-2-yl-ethyl)-amide] | 24.2
15 | COc1ccc(OC)c(Nc2nc(C)c(C(=O)N[C@@H]3CCC[C@H]3OCc3ccccc3)s2)c1 [Compound 33, 2-(2,5-dimethoxyphenylamino)-4-methylthiazole-5-carboxylic acid (1R,2R)-2-(benzyloxycyclopent-1-yl) amide] | 33.5
16 | Cc1nc(Nc2ccc(Br)cc2)sc1C(=O)N[C@@H](C)c1ccc2ccccc2c1 [Compound 18, 2-(4-bromo-phenylamino)-4-methyl-thiazole-5-carboxylic acid (S)-1-(naphthalen-2-yl)ethyl amide] | 26.5
17 | COc1ccccc1Nc1nc(C)c(C(=O)N[C@H]2CCC[C@@H]2OCc2ccccc2)s1 [Compound 68, 2-(2-methoxy-phenylamino)-4-methyl-thiazole-5-carboxylic acid (1S,2S)-2-(benzyloxycyclopent-1-yl) amide] | 7.95

Same assay, conditions: patch clamp; read-out: hERG IC50

Row | Compound | IC50 [µM]
18 | Cc1nc(Nc2ccc(Cl)cc2)sc1C(=O)N[C@@H]1CCC[C@H]1OCc1ccccc1 [Compound 30, 2-(4-chloro-phenylamino)-4-methyl-thiazole-5-carboxylic acid (1R,2R)-2-(benzyloxycyclopent-1-yl) amide] | 11
19 | Cc1nc(Nc2ccc(Br)cc2)sc1C(=O)NCc1ccc(N(C)C)cc1 [Compound 64, 2-(4-bromo-phenylamino)-4-methyl-thiazole-5-carboxylic acid 4-dimethylamino-benzylamide] | > 100
20 | 2-(4-bromo-phenylamino)-4-methyl-thiazole-5-carboxylic acid 1,2,3,4-tetrahydroisoquinolinamide [Compound 66] | 9.88
21 | Cc1nc(Nc2ccc(Br)cc2)sc1C(=O)NCc1cccc2ccccc12 [Compound 56, 2-(4-bromo-phenylamino)-4-methyl-thiazole-5-carboxylic acid (naphtalen-1-yl-methyl)-amide] | 7.04
22 | Cc1nc(Nc2ccc(Cl)cc2)sc1C(=O)N[C@@H](C)c1ccc2ccccc2c1 [Compound 54, 2-(4-chloro-phenylamino)-4-methyl-thiazole-5-carboxylic acid (S)-1-(2-naphtalen-2-yl-ethyl)-amide] | 15.8
23 | Cc1nc(Nc2ccc(Cl)cc2)sc1C(=O)N[C@H](C)c1ccc2ccccc2c1 [Compound 52, 2-(4-chloro-phenylamino)-4-methyl-thiazole-5-carboxylic acid (R)-1-(2-naphtalen-2-yl-ethyl)-amide] | 24.2

Same assay, conditions: percent value, test concentration not given

Row | Compound | hERG [%]
24 | Cc1nc(NC(=O)c2ccc(C(C)(C)C)cc2)sc1C(=O)N[C@H]1CCC[C@@H]1OCc1ccccc1 [Compound 180, 2-(4-tert-butyl-benzoylamino)-4-methyl-thiazole-5-carboxylic acid ((1S,2S)-2-benzyloxycyclopent-1-yl) amide] | 64
25 | COc1ccccc1Nc1ccc(C(=O)N[C@H]2CCC[C@@H]2OCc2ccccc2)s1 [Compound 75, 2-(2-methoxy-phenylamino)-thiophene-5-carboxylic acid ((1S,2S)-2-benzyloxycyclopent-1-yl) amide] | 76
26 | COc1ccccc1Nc1nc(C)c(C(=O)NCc2ccc3c(c2)CCO3)s1 [Compound 104, 2-(2-methoxy-phenylamino)-4-methyl-thiazole-5-carboxylic acid (2,3-dihydro-benzofuran-5-ylmethyl)-amide] | 43
27 | COc1ccccc1Nc1nc(C)c(C(=O)NCc2ccc(N(C)C)cc2)s1 [Compound 105, 2-(2-methoxy-phenylamino)-4-methyl-thiazole-5-carboxylic acid 4-dimethylamino-benzylamide] | 67
28 | COc1ccccc1Nc1nccc(C(=O)N[C@H]2CCC[C@@H]2OCc2ccccc2)n1 [Compound 76, 2-(2-methoxy-phenylamino)-pyrimidine-4-carboxylic acid ((1S,2S)-2-benzyloxycyclopent-1-yl) amide] | 34
29 | Cc1nc(Sc2ccccc2)sc1C(=O)N[C@H]1CCC[C@@H]1OCc1ccccc1 [Compound 81, 4-methyl-2-phenylsulfanyl-thiazole-5-carboxylic acid ((1S,2S)-2-benzyloxycyclopent-1-yl) amide] | 88
30 | COc1ccccc1Nc1nc(C)c(C(=O)NCc2ccccc2SC)s1 [Compound 97] | 55
31 | Cc1nc(Nc2cccc3cccnc23)sc1C(=O)N[C@H]1CCC[C@@H]1OCc1ccccc1 [Compound 94, 4-methyl-2-(quinolin-8-ylamino)-thiazole-5-carboxylic acid ((1S,2S)-2-benzyloxycyclopent-1-yl) amide] | 69
32 | COc1ccccc1Nc1nc(C)c(C(=O)NCc2c(C)cccc2Cl)s1 [Compound 98, 2-(2-methoxy-phenylamino)-4-methyl-thiazole-5-carboxylic acid 2-chloro-6-methyl-benzylamide] | 38
33 | Cc1nc(Nc2ccc3c(c2)OCCO3)sc1C(=O)N[C@H]1CCC[C@@H]1OCc1ccccc1 [Compound 95] | 76
34 | COc1ccccc1Nc1nc(C)c(C(=O)NCc2ccc(Br)cc2)s1 [Compound 108, 2-(2-methoxy-phenylamino)-4-methyl-thiazole-5-carboxylic acid 4-bromo-benzylamide] | 19
35 | Cc1nc(Nc2cccc3ccccc23)sc1C(=O)N[C@H]1CCC[C@@H]1OCc1ccccc1 [Compound 93] | 59
36 | COc1ccccc1Nc1nc(C)c(C(=O)NCc2ccc(C(C)(C)C)cc2)s1 [Compound 106, 2-(2-methoxy-phenylamino)-4-methyl-thiazole-5-carboxylic acid 4-tert-butyl-benzylamide] | 31
